Measured values: patent US20230339851A1, “CXCR6 SULFONAMIDE COMPOUNDS” (CHEMOCENTRYX, INC., priority 2022, published 2023)

Target: T1, human CXCR6 (Homo sapiens, UniProt O00574)
T1 construct: expressed in transfected cells
Test: Radioligand Binding Assay (125I-CXCL16 displacement)
Settings: L1.2 cells stably transfected with human CXCR6 cDNA, 0.1 nM 125I-CXCL16, 4° C., three-hour incubation; read-out: Potency (IC50)
Protocol: L1.2 cells stably transfected with human CXCR6 cDNA ([…]) were incubated at 4° C. in HBSS containing 0.1 % BSA and 0.1 nM of ^125I-CXCL16 plus various concentrations of Compound. Following a three-hour incubation period, cells were aspirated onto polyethyleneimine-treated GF/B glass fiber filters (PerkinElmer, Waltham, MA) with a cell harvester (Tomtec, Hamden, CT) and washed twice with washing buffer (25 mM Hepes, 500 mM NaCl, 1 mM CaCI2, 5 mM MgCI2, pH 7.1). Fifty µl of MicroScint-20 (PerkinElmer, Waltham, MA) was added to each well of the filters, and radioactive emissions (cpm) were measured on a Packard TopCount Scintillation counter (PerkinElmer, Waltham, MA). IC50 values were calculated with GraphPad Prism using 3 parameter nonlinear regression. […]

T1 sequence (O00574 whole entry): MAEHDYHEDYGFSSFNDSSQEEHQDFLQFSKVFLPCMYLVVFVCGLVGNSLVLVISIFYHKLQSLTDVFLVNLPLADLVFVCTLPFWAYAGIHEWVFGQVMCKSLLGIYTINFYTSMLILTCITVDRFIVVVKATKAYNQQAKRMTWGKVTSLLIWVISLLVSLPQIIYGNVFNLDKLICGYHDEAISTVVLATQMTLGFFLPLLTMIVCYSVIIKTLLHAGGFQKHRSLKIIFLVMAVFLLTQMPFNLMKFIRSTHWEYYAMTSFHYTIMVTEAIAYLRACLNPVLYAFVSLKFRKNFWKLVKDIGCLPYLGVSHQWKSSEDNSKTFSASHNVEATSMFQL

Row | Structure (SMILES) | IC50 [nM]
1 | CC(C)c1cc(NC(=O)c2ccnn2C)ccc1S(=O)(=O)Nc1cccc(OC(F)(F)F)c1 [Example 1.456] | 200 to 750
2 | CCOc1cc(NC(=O)C2CCCN(C(C)=O)C2)ccc1S(=O)(=O)Nc1cccc(OC(F)(F)F)c1 (stereo not shown) [Example 1.465] | 2000 to 20000
3 | CCOc1cc(NC(=O)[C@@H](O)C(C)C)ccc1S(=O)(=O)Nc1ccc(CC)c(C(F)(F)F)c1 [Example 1.411] | ≤ 200
4 | CCOc1cc(NC(=O)[C@@H](NC(C)=O)C(C)C)ccc1S(=O)(=O)Nc1cccc(C(F)(F)F)c1 [Example 1.507] | ≤ 200
5 | CCOc1cc(NC(=O)[C@@H]2CCOCC[C@@H]2O)ccc1S(=O)(=O)Nc1cccc(OC(F)(F)F)c1 [Example 1.513] | 200 to 750
6 | CCOc1cc(NC(=O)[C@H](C2CCCC2)[C@@H](C)O)ccc1S(=O)(=O)Nc1cccc(OC(F)(F)F)c1 (racemic) [Example 1.147] | ≤ 200
7 | CCOc1cc(NC(=O)[C@@H](O)C(C)C)ccc1S(=O)(=O)Nc1cccc(Cl)c1C [Example 1.570] | 750 to 2000
8 | CCOc1cc(NC(=O)C(O)C2CCC2)ccc1S(=O)(=O)Nc1cccc(OC(F)(F)F)c1 (stereo not shown) [Example 1.222] | ≤ 200
9 | CCOc1cc(NC(=O)C(C(=O)NCCO)C2CCCC2)ccc1S(=O)(=O)Nc1cccc(OC(F)(F)F)c1 (stereo not shown) [Example 1.339] | ≤ 200
10 | CCOc1cc(NC(=O)C2CCC=C[C@@H]2O)ccc1S(=O)(=O)Nc1cccc(OC(F)(F)F)c1 (stereo partly shown) [Example 1.303] | ≤ 200
11 | CCOc1cc(NC(=O)C2(c3ccccc3)CC2)ccc1S(=O)(=O)Nc1cccc(OC(F)(F)F)c1 [Example 1.394] | 750 to 2000
12 | C=Cc1cc(NS(=O)(=O)c2ccc(NC(=O)[C@@H](O)C(C)C)cc2OCC)ccc1C [Example 1.286] | ≤ 200
13 | COc1cc(NC(=O)[C@@H]2CCOC[C@H]2C)ccc1S(=O)(=O)Nc1cccc(OC(F)(F)F)c1 (racemic) [Example 1.007] | 200 to 750
14 | CCOc1cc(NC(=O)[C@@H](CO)c2ccccc2)ccc1S(=O)(=O)Nc1ccc(F)c(OC(F)(F)F)c1 [Example 1.208] | ≤ 200
15 | COc1cc(NC(=O)C2CCO[C@@H]2C)ccc1S(=O)(=O)Nc1cccc(OC(F)(F)F)c1 (stereo partly shown) [Example 1.364] | 750 to 2000
16 | CCOc1cc(NC(=O)[C@@H](CO)c2ccccc2)ccc1S(=O)(=O)Nc1ccc(C)c(CC)c1 [Example 1.498] | ≤ 200
17 | CCOc1cc(NC(=O)[C@H]2CCCC[C@H]2O)ccc1S(=O)(=O)Nc1cccc(OC(F)(F)F)c1 [Example 1.432] | ≤ 200
18 | CCOc1cc(NC(=O)[C@H]2CC[C@@H](OC)CC2)ccc1S(=O)(=O)Nc1cccc(OC(F)(F)F)c1 [Example 1.412] | 750 to 2000
19 | CCOc1cc(NC(=O)[C@@H](N)C(C)C)ccc1S(=O)(=O)Nc1cccc(OC(F)(F)F)c1 [Example 1.454] | ≤ 200
20 | CCOc1cc(NC(=O)[C@@H](O)C(C)C)ccc1S(=O)(=O)Nc1cccc(C(C)(C)C)c1 [Example 1.277] | 200 to 750
21 | CCOc1cc(NC(=O)[C@H](O)c2ccccc2)ccc1S(=O)(=O)Nc1cccc(OC(F)(F)F)c1 [Example 1.547] | 200 to 750
22 | COc1cc(NC(=O)C2CCCCO2)ccc1S(=O)(=O)Nc1cccc(C(F)(F)F)c1 (stereo not shown) [Example 1.572] | 750 to 2000
23 | COc1cc(NC(=O)C2CCCCC2)ccc1S(=O)(=O)Nc1cccc(C(F)(F)F)c1 [Example 1.008] | 2000 to 20000

Row | Structure (SMILES) | IC50 [nM]
24 | Cc1cc(NC(=O)c2cccc(Cl)c2)ccc1S(=O)(=O)Nc1cccc(C(F)(F)F)c1 [Example 1.299] | 200 to 750
25 | COc1cc(NC(=O)C2CCOCC2)ccc1S(=O)(=O)Nc1cccc(C(F)(F)F)c1 [Example 1.304] | 750 to 2000
26 | CCOc1cc(NC(=O)[C@@H](CO)C(C)C)ccc1S(=O)(=O)Nc1ccc(C)c(Cl)c1 [Example 1.142] | ≤ 200
27 | CCOc1cc(NC(=O)c2cn[nH]c(=O)c2)ccc1S(=O)(=O)Nc1cccc(OC(F)(F)F)c1 [Example 1.529] | ≤ 200
28 | COc1cc(NC(=O)C2CC3C=CC2O3)ccc1S(=O)(=O)Nc1cccc(OC(F)(F)F)c1 (stereo not shown) [Example 1.370] | 750 to 2000
29 | CCOc1cc(NC(=O)C(C(=O)O)C2CCCCC2)ccc1S(=O)(=O)Nc1cccc(OC(F)(F)F)c1 (stereo not shown) [Example 1.484] | ≤ 200
30 | CCOc1cc(NC(=O)[C@@H](O)C(C)C)ccc1S(=O)(=O)Nc1ccc(C)c(C(C)C)c1 [Example 1.445] | ≤ 200
31 | CCOc1cc(NC(=O)[C@@H](O)C(C)C)ccc1S(=O)(=O)Nc1ccc(Cl)c(OC(F)(F)F)c1 [Example 1.533] | ≤ 200
32 | CCOc1cc(NC(=O)c2ccncc2)ccc1S(=O)(=O)Nc1cccc(OC(F)(F)F)c1 [Example 1.366] | ≤ 200
33 | CCOc1cc(NC(=O)CC(O)CC2CCOCC2)ccc1S(=O)(=O)Nc1cccc(OC(F)(F)F)c1 (stereo not shown) [Example 1.131] | 2000 to 20000
34 | CCOc1cc(NC(=O)C2CCCCCC2)ccc1S(=O)(=O)Nc1cccc(OC(F)(F)F)c1 [Example 1.355] | 750 to 2000
35 | COc1cc(NC(=O)[C@@H](CO)C(C)C)ccc1S(=O)(=O)Nc1cccc(OC(F)(F)F)c1 [Example 1.009] | ≤ 200
36 | CCOc1cc(NC(=O)C(C)C(O)C2CC3C=CC2C3)ccc1S(=O)(=O)Nc1cccc(OC(F)(F)F)c1 (stereo not shown) [Example 1.517] | 200 to 750
37 | Cc1cc(NC(=O)c2ccccc2)ccc1S(=O)(=O)Nc1cccc(C(F)(F)F)c1 [Example 1.447] | 200 to 750
38 | CCOc1cc(NC(=O)[C@@H](CO)c2ccccc2)ccc1S(=O)(=O)Nc1ccc(Cl)c(C)c1 [Example 1.258] | 200 to 750
39 | CCOc1cc(NC(=O)C(C(C)C)C(C)O)ccc1S(=O)(=O)Nc1cccc(OC(F)(F)F)c1 (stereo not shown) [Example 1.133] | ≤ 200
40 | CCOc1cc(NC(=O)[C@@H](CO)c2ccccc2)ccc1S(=O)(=O)Nc1cccc(C(F)(F)F)c1 [Example 1.437] | ≤ 200
41 | Cc1cc(NC(=O)c2ccon2)ccc1S(=O)(=O)Nc1cccc(C(F)(F)F)c1 [Example 1.268] | 750 to 2000
42 | CCOc1cc(NC(=O)[C@@H](NC(=O)OC(C)(C)C)C(C)O)ccc1S(=O)(=O)Nc1cccc(OC(F)(F)F)c1 (stereo partly shown) [Example 1.020] | 750 to 2000
43 | CCOc1cc(NC(=O)C(C(N)=O)C2CCCC2)ccc1S(=O)(=O)Nc1cccc(OC(F)(F)F)c1 (stereo not shown) [Example 1.245] | ≤ 200
44 | Cc1cc(NC(=O)[C@@H](O)c2ccccc2)ccc1S(=O)(=O)Nc1cccc(OC(F)(F)F)c1 [Example 1.266] | 200 to 750
45 | CCOc1cc(NC(=O)[C@H]2CC=CC[C@H]2CO)ccc1S(=O)(=O)Nc1cccc(OC(F)(F)F)c1 [Example 1.539] | 200 to 750
46 | COc1cc(NC(=O)c2ccnn2C)ccc1S(=O)(=O)Nc1cc(Cl)cc(OC(F)(F)F)c1 [Example 1.336] | 200 to 750

Row | Structure (SMILES) | IC50 [nM]
47 | CCOc1cc(NC(=O)C(CO)c2ccccc2)ccc1S(=O)(=O)Nc1cccc(OC(F)(F)F)c1 (stereo not shown) [Example 1.473] | ≤ 200
48 | CCOc1cc(NC(=O)[C@@H](O)Cc2ccccc2)ccc1S(=O)(=O)Nc1cccc(OC(F)(F)F)c1 [Example 1.207] | ≤ 200
49 | CCOc1cc(NC(=O)[C@@H](O)C(C)C)ccc1S(=O)(=O)Nc1ccc(F)c(OC(F)(F)F)c1 [Example 1.209] | ≤ 200
50 | CCOc1cc(NC(=O)C(O)c2cccc(Cl)c2)ccc1S(=O)(=O)Nc1cccc(OC(F)(F)F)c1 (stereo not shown) [Example 1.528] | ≤ 200
51 | COc1cc(NC(=O)c2ccccc2)ccc1S(=O)(=O)Nc1cccc(C(F)(F)F)c1 [Example 1.040] | 200 to 750
52 | Cc1cc(NC(=O)C(CO)C(C)C)ccc1S(=O)(=O)Nc1cccc(OC(F)(F)F)c1 (stereo not shown) [Example 1.400] | 200 to 750
53 | COc1cc(NC(=O)[C@H]2CCOC[C@H]2C)ccc1S(=O)(=O)Nc1cccc(C(F)(F)F)c1 (racemic) [Example 1.219] | 200 to 750
54 | CCOc1cc(NC(=O)[C@H]2CC(C)=C(C)C[C@@H]2C(=O)O)ccc1S(=O)(=O)Nc1cccc(OC(F)(F)F)c1 [Example 1.096] | ≤ 200
55 | CCOc1cc(NC(=O)C2CCOC2)ccc1S(=O)(=O)Nc1cccc(OC(F)(F)F)c1 (stereo not shown) [Example 1.058] | 200 to 750
56 | CCOc1cc(NC(=O)C(CO)C2CCOCC2)ccc1S(=O)(=O)Nc1cccc(OC(F)(F)F)c1 (stereo not shown) [Example 1.092] | 200 to 750
57 | Cc1cc(NC(=O)c2cccnc2)ccc1S(=O)(=O)Nc1cccc(C(F)(F)F)c1 [Example 1.330] | 200 to 750
58 | Cc1cc(NC(=O)[C@@H](N)c2ccccc2)ccc1S(=O)(=O)Nc1cccc(OC(F)(F)F)c1 [Example 1.450] | ≤ 200
59 | CCc1cc(NC(=O)[C@@H](CO)C(C)C)ccc1S(=O)(=O)Nc1cccc(OC(F)(F)F)c1 [Example 1.201] | ≤ 200
60 | COc1cc(NC(=O)[C@H]2CC[C@H](OC)CC2)ccc1S(=O)(=O)Nc1cccc(C(F)(F)F)c1 [Example 1.051] | 2000 to 20000
61 | CCOc1cc(NC(=O)C2CCC[C@@H]2O)ccc1S(=O)(=O)Nc1cccc(OC(F)(F)F)c1 (stereo partly shown) [Example 1.185] | 200 to 750
62 | CCOC(=O)[C@H]1CC(C)=C(C)C[C@@H]1C(=O)Nc1ccc(S(=O)(=O)Nc2cccc(OC(F)(F)F)c2)c(OCC)c1 [Example 1.291] | 200 to 750
63 | CCOc1cc(NC(=O)C2CC=CC[C@@H]2O)ccc1S(=O)(=O)Nc1ccc(C)c(OC(F)(F)F)c1 (stereo partly shown) [Example 1.172] | ≤ 200
64 | Cc1cc(NC(=O)[C@H]2CCOC[C@H]2C)ccc1S(=O)(=O)Nc1cccc(C(F)(F)F)c1 (racemic) [Example 1.483] | 200 to 750
65 | Cc1cc(NC(=O)c2ccncc2)ccc1S(=O)(=O)Nc1cccc(C(F)(F)F)c1 [Example 1.524] | 200 to 750
66 | CCOc1cc(NC(=O)[C@@H](O)C(C)C)ccc1S(=O)(=O)Nc1ccc(F)c(CC)c1 [Example 1.431] | ≤ 200
67 | CCOc1cc(NC(=O)[C@@H](O)C(C)C)ccc1S(=O)(=O)Nc1cccc(Cl)c1OC [Example 1.216] | 2000 to 20000
